Results on seven compounds are retold here after patent US7732429B2 (Trustees of Tufts College, priority 1994, dated 2010).

≈ marks a conversion by molar mass, not a printed value. Where two headings read alike, the source gives them in different places.

One may read the Ki as a measure of affinity in units of concentration, obtained from inhibition or displacement. Read a low Ki as tighter binding.

For assay [1], the target named is T1, efflux protein (Escherichia coli, UniProt P02980).
T1 sequence (P02980 1-401): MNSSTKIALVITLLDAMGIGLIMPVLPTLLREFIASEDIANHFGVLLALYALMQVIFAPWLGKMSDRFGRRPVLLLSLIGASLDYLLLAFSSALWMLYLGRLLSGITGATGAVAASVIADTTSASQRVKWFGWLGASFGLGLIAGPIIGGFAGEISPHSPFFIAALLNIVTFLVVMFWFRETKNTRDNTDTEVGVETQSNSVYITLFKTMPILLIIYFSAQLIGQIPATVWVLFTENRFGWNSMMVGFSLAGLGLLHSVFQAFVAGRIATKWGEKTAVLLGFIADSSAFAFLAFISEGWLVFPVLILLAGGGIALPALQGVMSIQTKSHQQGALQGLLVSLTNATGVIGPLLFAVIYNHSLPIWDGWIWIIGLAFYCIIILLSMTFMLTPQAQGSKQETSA
Nature of the assay: everted membrane vesicle assay, blocking activity of 13-S-derivatives. It counts as biochemical.

Assay [2] concerns E. faecalis Tc^r(M) (ATCC09790r/TelM). It counts as cell-based. To be noted: drug alone; for MLC: kills 99.9%.
Assay [3] deals with E. coli Class A Tc^r (DI-299). It is filed as cell-based. To be noted: drug alone; for MLC: kills 99.9%.
The test system of assay [4] is E. faecalis Tc^r (L) ATCC9790r/Tell.). Nature of the assay: susceptibility testing MIC/MLC, drug alone. It counts as cell-based.
Assay [5] relates to S. aureus Tc^r (RN4250). It is filed as cell-based.
In assay [6] the test system is E. coli Tc^s (MI 308-226). As to the kind of experiment: susceptibility testing MIC/MLC, drug alone. It is filed as cell-based. To be noted: for MLC: kills 99.9%.
For assay [7], the system named is E. coli Class B Tc^r (DI-209). It is filed as cell-based. To be noted: drug alone; for MLC: kills 99.9%.
In assay [8] the test system is tetracycline resistant S. aureus. To be noted: in combination with tetracycline.
The test system of assay [9] is E. faecalis (Class M). To be noted: result in words.
Assay [10] deals with E. faecalis Tc^s (ATCC9790r). As to the kind of experiment: susceptibility testing MIC/MLC, drug alone. It is filed as cell-based.
Assay [11] deals with E. coli ML308. As to the kind of experiment: susceptibility of tetracycline susceptible strains (MIC), C5 esters. It counts as cell-based. To be noted: E. coli ML308, susceptible strain, drug alone.
Assay [12] has as its system S. aureus 450. The assay is described as above. It is filed as cell-based. To be noted: S. aureus 450, susceptible strain, drug alone.
In assay [13] the test system is E. faecalis ATCC 9790. The description is as above. It counts as cell-based. To be noted: E. faecalis ATCC 9790, susceptible strain, drug alone.
In assay [14] the test system is tetracycline resistant (Class A) E. coli (strain D1-299). To be noted: in combination with tetracycline.
Where [15] appears, read: E. faecalis bearing the Tet L determinant.
Setting [16] is: Tc^r (L) ATCC9790r/Tell.), drug alone.
Setting [17] is: Tc^r (L) ATCC9790r/Tell.), drug alone, kills 99.9%.
The mark [18] stands for this setting: Tc^r(RN4250), drug alone, kills 99.9%.

In the case of `CN(C)C1C(O)=C(C(N)=O)C(=O)C2(O)C(O)=C3C(=O)c4c(O)cccc4C(CSCc4ccccc4)C3C(O)C12` (stereo not drawn) [Benzyl, 6-deoxy-13-(benzylmercapto) tetracycline], the Ki in assay [1] is 1590 nM. The MIC in assay [2] was 3.5 ± 1 µg; in [3] it was 45 ± 20 µg; in assay [4] (setting [16]) it was 0.75 ± 0.25 µg; in [5] (Tc^r(RN4250), drug alone) it was 1 ± 0.25 µg; in assay [6] (Tc^s (MI 308-226), drug alone), 16 ± 5 µg; in [7], 30 ± 0.25 µg. In [10], the MIC amounted to 0.5 ± 0.25 µg. Besides, the MLC in [2] came out at 18 ± 2 µg; in [3], 150 ± 50 µg; in [4] (setting [15]), 8 ± 2 µg/mL (≈ 14.1 µM); in assay [4] (setting [17]), 8 ± 2 µg; in assay [5] (setting [18]) it was 10 ± 4 µg; in assay [6] (Tc^s (MI 308-226), drug alone) it was 25 ± 6 µg. The MLC in [7] was found to be 90 ± 10 µg. In addition, the “combined dose of the two drugs to achieve MLC” value (“combined dose of the two drugs” for short) in assay [8] is at most 6 µg/mL. For the same compound, the “synergistic activity with tetracycline” value in [9] was “little, if any synergistic activity”.

Regarding `CCCSCC1c2cccc(O)c2C(=O)C2=C(O)C3(O)C(=O)C(C(N)=O)=C(O)C(N(C)C)C3C(OC(=O)CC)C21` (stereo not drawn) [Cmpd 8, 13-propylthio-5-proprionate-6-deoxy-tetracycline], the figures for the MIC in assay [11], in assay [12] and in assay [13] were 20 µg/mL (≈ 34.8 µM), “.3 µg/mL” and 2.5 µg/mL (≈ 4.35 µM), respectively.

Turning to `CN(C)C1C(O)=C(C(N)=O)C(=O)C2(O)C(O)=C3C(=O)c4c(O)cccc4C(CSC4CCCCC4)C3C(O)C12` (stereo not drawn) [Cyclohexyl], the Ki in assay [1] was 716 nM. The MIC in assay [2] worked out at 2.5 ± 0.5 µg; in assay [3] it was 100 ± 0.26 µg; in assay [4] (setting [16]), 1.5 ± 0.5 µg; in [5] (Tc^r(RN4250), drug alone), 1.5 ± 0.5 µg; in assay [6] (Tc^s (MI 308-226), drug alone), 60 ± 10 µg; in [10], 1.25 ± 0.25 µg. In addition, the MLC was 10 ± 0.25 µg in assay [2]; above 200 µg in [3]; 8 ± 2 µg/mL (≈ 14.3 µM) in assay [4] (setting [15]); 8 ± 2 µg in [4] (setting [17]); 10 ± 4 µg in assay [5] (setting [18]); 120 µg in assay [6] (Tc^s (MI 308-226), drug alone). The “combined dose of the two drugs” value in assay [8] was at most 6 µg/mL. Moreover, in assay [9], the “synergistic activity with tetracycline” value was “little, if any synergistic activity”. Moreover, the “concentrations of analogue and tetracycline that inhibited growth” value in assay [14] is at most 5 μg/ml.

Compound `CN(C)C1C(O)=C(C(N)=O)C(=O)C2(O)C(O)=C3C(=O)c4c(O)cccc4C(CSC4CCCC4)C3C(O)C12` (stereo not drawn) [Cyclopentyl, 13-cyclopentylthio-5-hydroxy-6-α-deoxy-tetracycline] showed a Ki in [1] of 367 nM. Moreover, the MIC was determined as 3 ± 1 µg in assay [2]; 40 ± 0.25 µg in [3]; 1 ± 0.5 µg in assay [4] (setting [16]); 2 ± 0.25 µg in [5] (Tc^r(RN4250), drug alone); 20 µg in assay [6] (Tc^s (MI 308-226), drug alone); 80 ± 40 µg in assay [7]. The MIC in assay [10] amounted to 1 ± 0.25 µg. Besides, the MLC in assay [2] was above 16 µg; in assay [3], 80 µg; in [4] (setting [17]), 18 ± 2 µg; in assay [5] (setting [18]), 6 ± 2 µg; in assay [5] (resistant S. aureus), 6 ± 2 µg/mL (≈ 11 µM); in [6] (Tc^s (MI 308-226), drug alone), 60 µg. Moreover, the MLC in assay [7] came to 100 ± 60 µg. For the same compound, in assay [8], the “combined dose of the two drugs” value was at most 6 µg/mL. The “synergistic activity with tetracycline” value in assay [9] was “little, if any synergistic activity”. The “concentrations of analogue and tetracycline that inhibited growth” value in [14] is reported as at most 5 μg/ml.

As for `CCSCC1c2cccc(O)c2C(=O)C2=C(O)C3(O)C(=O)C(C(N)=O)=C(O)C(N(C)C)C3CC21` (stereo not drawn) [Ethyl, 6-deoxy-13-(ethylmercapto) tetracycline], the MIC in [2] was found to be 25 ± 5 µg; in [3] it was 14 ± 4 µg; in assay [4] (setting [16]), 4 ± 1 µg; in [6] (Tc^s (MI 308-226), drug alone), 5 ± 0.25 µg; in [6] (susceptible E. coli), 5 µg/mL (≈ 10.2 µM); in assay [7], 36 ± 16 µg. In assay [10], this compound had an MIC of 1 ± 0.5 µg. The MLC is 45 ± 5 µg in assay [3]; 50 µg in assay [6] (Tc^s (MI 308-226), drug alone); 50 ± 10 µg in assay [7]. Further, the “concentrations of analogue and tetracycline that inhibited growth” value in assay [14] is listed as at most 5 μg/ml.

For the compound `CN(C)c1ccc(O)c2c1C[C@H]1C[C@H]3[C@H](N(C)C)C(=O)C(C(N)=O)=C(O)[C@@]3(O)C(=O)C1=C2O` [Minocycline, reference compound], the MIC in assay [2] was 10 µg; in [3] it was below 4 µg; in assay [4] (setting [16]), below 0.25 µg; in assay [6] (Tc^s (MI 308-226), drug alone), below 4 µg; in assay [7], 6 ± 2 µg; in assay [10], below 0.25 µg. In addition, the MLC is 20 µg in assay [3]; below 4 µg in assay [6] (Tc^s (MI 308-226), drug alone); 30 ± 10 µg in assay [7].

For `CN(C)C1C(O)=C(C(N)=O)C(=O)C2(O)C(O)=C3C(=O)c4c(O)cccc4C(C)(O)C3CC12` (stereo not drawn) [Tetracycline, 4-(Dimethylamino)-1,4,4a,5,5a,6-11,12a-octahydro-3,6,10,12,12a-pentahydroxy-6-methyl-1-11-dioxo-2-naphthacenecarboxamide, reference compound], the Ki in assay [1] (blocking activity against the efflux protein, everted membrane vesicle assay) is 9000 to 18000 nM. Also, the MIC in assay [2] is 100 µg; in [3] it was 150 ± 0.25 µg; in [4] (setting [16]), 90 ± 10 µg; in assay [6] (Tc^s (MI 308-226), drug alone) it was 0.6 ± 0.26 µg; in assay [7] it was above 200 µg; in [10] it was 0.25 µg. Moreover, the MLC in assay [3] was 200 µg; in assay [6] (Tc^s (MI 308-226), drug alone), 40 ± 0.26 µg; in assay [7], above 200 µg.
